The text below walks through data of patent EP4768480A1, “ALKOXY THIOPHENE ACYL ARYLAMINE COMPOUNDS AND USE THEREOF” (priority 2024, dated 2025).

Assay [1] deals with dry eye mice. Kind of assay: Ocular surface sodium fluorescein staining in dry eye mice. Format: in vivo, male C57BL/6 experimental mice. The conditions noted are these: for corneal fluorescein sodium staining scores compared to cyclosporine eyedrops: 0.04% compound, comparison with cyclosporine eyedrops; for corneal fluorescein sodium staining scores compared to cyclosporine eyedrops / corneal fluorescein sodium staining scores: 5 µl per eye, twice daily, one week; for corneal fluorescein sodium staining scores: ocular surface, 0.04% compound or commercial cyclosporine eyedrops, versus carrier group; for area of corneal damage (sodium fluorescein staining photograph): compared to the carrier group, Figure 2. The procedure: (§1) Experimental animals: male C57BL/6 experimental mice aged 6-8 weeks.
(§2) Experimental reagents and consumables: phenol red cotton line, 1% sodium fluorescein solution, ? 0.05% cyclosporin eyedrops (II) from Xingqi Eyedrops Company, 0.
(§3) At the end of 2 weeks, the dry eye mice were randomly divided into four groups, with 7 mice in each group.
(§4) Each eye of every mouse received 5 µl of […] through ocular surface administration, twice daily. Another group of 7 male C57BL/6 experimental mice aged 6-8 weeks was kept in a thermostatic blast drying oven with controlled environmental humidity of 50% and temperature of 25°C, and received an empty carrier as a physiological control in the third week.
(§5) All mice were evaluated for ocular surface damage recovery by ocular surface fluorescein sodium staining scores on the third weekend, and the tear secretion of mice was measured with phenol red surface lines. To be more specific, the phenol red surface line was placed in the conjunctival sac of a mouse in the anesthesia state for 30 seconds, and then the discoloration length of the phenol red surface line was measured. 2 µl of 1% sodium fluorescein solution was then administered through ocular surface, and photographs were taken under a cobalt blue lamp for scoring and statistics.

For assay [2], the system named is dry eye mice. Description: Tear secretion by phenol red cotton thread in dry eye mice. The conditions noted are these: thread 30 seconds in conjunctival sac, compared to the vehicle group, Figure 3. The assay is classed as in vivo, male C57BL/6 experimental mice. The procedure:
as §1, §2, §3, §4, §5

A further assay has as its target Aβ (Homo sapiens, UniProt P05067). The conditions noted are these: literature value, Deepak et al., 2020; read-out: inhibiting the aggregation of Aβ, EC50; cited from earlier work.
A further assay addresses T1, SMS2 (Homo sapiens, UniProt Q8NHU3).
T1 construct: CAO, Yu research team, National Protein Scientific Center (Shanghai); supplied by an outside laboratory, not a commercial vendor
T1 sequence (Q8NHU3 1-365): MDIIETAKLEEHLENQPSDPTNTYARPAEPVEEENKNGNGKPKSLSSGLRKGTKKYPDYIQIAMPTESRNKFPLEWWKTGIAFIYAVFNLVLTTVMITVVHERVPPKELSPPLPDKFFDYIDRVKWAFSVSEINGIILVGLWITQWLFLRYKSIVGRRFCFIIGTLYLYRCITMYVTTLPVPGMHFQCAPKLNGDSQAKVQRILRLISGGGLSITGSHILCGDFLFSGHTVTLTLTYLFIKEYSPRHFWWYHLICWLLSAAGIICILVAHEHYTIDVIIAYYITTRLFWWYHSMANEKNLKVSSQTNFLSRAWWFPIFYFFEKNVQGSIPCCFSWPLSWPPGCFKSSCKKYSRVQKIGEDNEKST
Description: SMS2 inhibitory activity in vitro, HPLC fluorescence quantitative detection (C6-NBD-ceramide to C6-NBD-SM). Format: biochemical. The settings on record: 10 µM test compound; SMS2 pure enzyme; 37°C, 30 minutes; average of two measurements; read-out: Inhibition rate on SMS2 at C/µM 10.

The structures appear in SMILES notation.

Aβ, sequence (P05067 672-713 limits assumed): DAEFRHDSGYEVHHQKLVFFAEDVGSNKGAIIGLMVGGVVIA

In the case of `O=C(Nc1cccnc1)c1sccc1OCc1cc(F)ccc1Cl` [1-2, 3-(2-chloro-5-fluorobenzyloxy)-N-(pyridin-3-yl)thiophene-2-carboxamide], in the assay with dry eye mice [1], the “corneal fluorescein sodium staining scores compared to cyclosporine eyedrops” value is listed as “statistically significant advantages”, the “corneal fluorescein sodium staining scores” value is reported as “reduction in corneal fluorescein sodium staining scores” and the “area of corneal damage (sodium fluorescein staining photograph)” value is recorded as “can reduce the area of corneal damage”. Besides, in the assay with dry eye mice [2], the “tear secretion (discoloration length of phenol red cotton thread)” value is given as “exhibited an increasing trend compared to the vehicle group”.
With `CCCCCCCCOc1ccccc1COc1ccsc1C(=O)Nc1cccnc1` [1-31, 3-(2-(octyloxy)benzyloxy)-N-(pyridin-3-yl)thiophene-2-carboxamide], in the assay with dry eye mice [1], the “corneal fluorescein sodium staining scores compared to cyclosporine eyedrops” value was “statistically significant advantages”, the “corneal fluorescein sodium staining scores” value is “reduction in corneal fluorescein sodium staining scores” and the “area of corneal damage (sodium fluorescein staining photograph)” value is “can reduce the area of corneal damage”. Moreover, the “tear secretion (discoloration length of phenol red cotton thread)” value with dry eye mice [2] is “exhibited an increasing trend compared to the vehicle group”.
Take `CC(C)=CCC/C(C)=C/CC[C@@]1(C)C=Cc2c(cc(C)c(C(=O)O)c2O)O1` [Daurichromonic acid]: the 50% effective concentration (EC50) (as a rule, the concentration at which the effect is half-maximal) at Aβ is 57 µM.
With `N#Cc1ccc(COc2ccsc2C(=O)Nc2cccnc2)cc1` [1-52, 3-(4-cyanobenzyloxy)-N-(pyridin-3-yl)thiophene-2-carboxamide], the inhibition at 10 µM at SMS2 was determined as 50%.
